In patent publication US20250270172A1, “Pyrimidine Derivatives As Modulators of the 5-HT2A Serotonin Receptor Useful For The Treatment of Disorders Related Thereto” (Arena Pharmaceuticals, Inc., priority 2020, published 2025):

Molecular target: 5-HT2A (Homo sapiens (Human), UniProt P28223)
Test: Radioligand binding assay, [^3H]5-HT competition, 5-HT2A
Details: [^3H]5-HT radioligand, membranes of HEK293 cells expressing recombinant 5-HT2A; Ki from IC50 by Cheng-Prusoff; read-out: 5-HT2A serotonin binding Ki value

Chain of 5-HT2A (P28223 whole entry): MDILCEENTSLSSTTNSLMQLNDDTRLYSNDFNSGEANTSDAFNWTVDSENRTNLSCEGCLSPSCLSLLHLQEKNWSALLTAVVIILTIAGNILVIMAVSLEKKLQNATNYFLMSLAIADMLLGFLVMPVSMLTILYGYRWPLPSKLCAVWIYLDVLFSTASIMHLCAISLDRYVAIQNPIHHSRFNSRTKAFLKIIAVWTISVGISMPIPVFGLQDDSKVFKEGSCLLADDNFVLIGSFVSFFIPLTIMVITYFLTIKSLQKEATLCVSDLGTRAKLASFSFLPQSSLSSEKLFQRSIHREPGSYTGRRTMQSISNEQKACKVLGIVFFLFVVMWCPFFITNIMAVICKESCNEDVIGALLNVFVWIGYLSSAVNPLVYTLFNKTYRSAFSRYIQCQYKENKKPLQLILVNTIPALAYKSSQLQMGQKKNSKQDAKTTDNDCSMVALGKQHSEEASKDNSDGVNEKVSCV

Q: For `Cc1ncnc(C)c1-c1cc(NC(=O)CNC2CC2)ccc1OCCN1CCCC1` [Compound 288, 2-(Cyclopropylamino)-N-[3-(4,6-dimethylpyrimidin-5-yl)-4-(2-pyrrolidin-1-ylethoxy)phenyl]acetamide], which Ki is on record?
A: 81.2 nM

Q: For `Cc1ncnc(C)c1-c1cc(NC(=O)CNC2CCCC2)ccc1OCCN1CCCC1` [Compound 289, 2-(cyclopentylamino)-N-(3-(4,6-dimethylpyrimidin-5-yl)-4-(2-(pyrrolidin-1-yl)ethoxy)phenyl)acetamide], which Ki is on record?
A: 123 nM

Q: With `Cc1cnn(C)c1C(=O)Nc1ccc(OCCN2CCCC2)c(-c2c(C)ncnc2C)c1` [Compound 292, N-(3-(4,6-dimethylpyrimidin-5-yl)-4-(2-(pyrrolidin-1-yl)ethoxy)phenyl)-1,4-dimethyl-1H-pyrazole-5-carboxamide] as the compound, how does the Ki read?
A: 17.6 nM

Q: With `Cc1ncnc(C)c1-c1cc(NC(=O)Cc2nccs2)ccc1OCCN1CCCC1` [Compound 294, N-(3-(4,6-dimethylpyrimidin-5-yl)-4-(2-(pyrrolidin-1-yl)ethoxy)phenyl)-2-(thiazol-2-yl)acetamide] as the compound, how does the Ki read?
A: 17.9 nM

Q: Which Ki does the source give for `Cc1ncnc(C)c1-c1cc(NC(=O)c2c(F)ccn2C)ccc1OCCN1CCCC1` [Compound 295, N-[3-(4,6-dimethylpyrimidin-5-yl)-4-(2-pyrrolidin-1-ylethoxy)phenyl]-3-fluoro-1-methyl-pyrrole-2-carboxamide] here?
A: 2.01 nM

Q: For `Cc1ncnc(C)c1-c1cc(NC(=O)C2CC(F)(F)C2)ccc1OCCN1CCCC1` [Compound 296, N-(3-(4,6-dimethylpyrimidin-5-yl)-4-(2-(pyrrolidin-1-yl)ethoxy)phenyl)-3,3-difluorocyclobutane-1-carboxamide], which Ki is on record?
A: 4.49 nM

Q: How did the Ki turn out when `Cc1ncnc(C)c1-c1cc(NC(=O)c2cccc(F)c2)ccc1OCCN1CCCC1` [Compound 297, N-(3-(4,6-dimethylpyrimidin-5-yl)-4-(2-(pyrrolidin-1-yl)ethoxy)phenyl)-3-fluorobenzamide] was run?
A: 2.71 nM

Q: Which Ki does the source give for `Cc1ncnc(C)c1-c1cc(NC(=O)c2ccccc2F)ccc1OCCN1CCCC1` [Compound 298, N-(3-(4,6-dimethylpyrimidin-5-yl)-4-(2-(pyrrolidin-1-yl)ethoxy)phenyl)-2-fluorobenzamide] here?
A: 16.9 nM

Q: For `Cc1ccccc1C(=O)Nc1ccc(OCCN2CCCC2)c(-c2c(C)ncnc2C)c1` [Compound 299, N-(3-(4,6-dimethylpyrimidin-5-yl)-4-(2-(pyrrolidin-1-yl)ethoxy)phenyl)-2-methylbenzamide], which Ki is on record?
A: 20.6 nM

Q: Which Ki does the source give for `Cc1cccc(C(=O)Nc2ccc(OCCN3CCCC3)c(-c3c(C)ncnc3C)c2)c1` [Compound 300, N-(3-(4,6-dimethylpyrimidin-5-yl)-4-(2-(pyrrolidin-1-yl)ethoxy)phenyl)-3-methylbenzamide] here?
A: 1.48 nM

Q: For `Cc1ccc(C(=O)Nc2ccc(OCCN3CCCC3)c(-c3c(C)ncnc3C)c2)cc1` [Compound 301, N-(3-(4,6-dimethylpyrimidin-5-yl)-4-(2-(pyrrolidin-1-yl)ethoxy)phenyl)-4-methylbenzamide], which Ki is on record?
A: 3.4 nM

Q: Which Ki does the source give for `Cc1ncnc(C)c1-c1cc(NC(=O)[C@H]2C[C@@H](F)C2)ccc1OCCN1CCCC1` [Compound 302, (1s,3s)-N-(3-(4,6-dimethylpyrimidin-5-yl)-4-(2-(pyrrolidin-1-yl)ethoxy)phenyl)-3-fluorocyclobutane-1-carboxamide] here?
A: 3.18 nM

Q: With `Cc1ncnc(C)c1-c1cc(NC(=O)[C@H]2C[C@H](F)C2)ccc1OCCN1CCCC1` [Compound 303, (1r,3r)-N-(3-(4,6-dimethylpyrimidin-5-yl)-4-(2-(pyrrolidin-1-yl)ethoxy)phenyl)-3-fluorocyclobutane-1-carboxamide] as the compound, how does the Ki read?
A: 9.36 nM

Q: Which Ki does the source give for `COc1cccc(CC(=O)Nc2ccc(OCCN3CCC3)c(-c3c(C)ncnc3C)c2)c1` [Compound 311, N-(4-(2-(azetidin-1-yl)ethoxy)-3-(4,6-dimethylpyrimidin-5-yl)phenyl)-2-(3-methoxyphenyl)acetamide] here?
A: 3.01 nM

Q: `COc1ccc(CC(=O)Nc2ccc(OCCN3CCC3)c(-c3c(C)ncnc3C)c2)cc1` [Compound 313, N-(4-(2-(azetidin-1-yl)ethoxy)-3-(4,6-dimethylpyrimidin-5-yl)phenyl)-2-(4-methoxyphenyl)acetamide] was tested. Which Ki did it give?
A: 1.7 nM

Q: How did the Ki turn out when `Cc1ncnc(C)c1-c1cc(NC(=O)Cc2ccc(F)cn2)ccc1OCCN1CCC1` [Compound 315, N-(4-(2-(azetidin-1-yl)ethoxy)-3-(4,6-dimethylpyrimidin-5-yl)phenyl)-2-(5-fluoropyridin-2-yl)acetamide] was run?
A: 12.6 nM

Q: For `CCOC1CC1C(=O)Nc1ccc(OCCN2CCC2)c(-c2c(C)ncnc2C)c1` (stereo not drawn) [Compound 317, N-(4-(2-(azetidin-1-yl)ethoxy)-3-(4,6-dimethylpyrimidin-5-yl)phenyl)-2-ethoxycyclopropane-1-carboxamide], which Ki is on record?
A: 96.3 nM

Q: For `Cc1ncnc(C)c1-c1cc(NC(=O)c2cccc(F)c2)ccc1OCCN1CCC1` [Compound 320, N-(4-(2-(azetidin-1-yl)ethoxy)-3-(4,6-dimethylpyrimidin-5-yl)phenyl)-3-fluorobenzamide], which Ki is on record?
A: 1.77 nM

Q: With `Cc1cccc(C(=O)Nc2ccc(OCCN3CCC3)c(-c3c(C)ncnc3C)c2)c1` [Compound 322, N-(4-(2-(azetidin-1-yl)ethoxy)-3-(4,6-dimethylpyrimidin-5-yl)phenyl)-3-methylbenzamide] as the compound, how does the Ki read?
A: 3.39 nM

Q: With `Cc1ccc(C(=O)Nc2ccc(OCCN3CCC3)c(-c3c(C)ncnc3C)c2)cc1` [Compound 323, N-(4-(2-(azetidin-1-yl)ethoxy)-3-(4,6-dimethylpyrimidin-5-yl)phenyl)-4-methylbenzamide] as the compound, how does the Ki read?
A: 3.77 nM

Q: `Cc1ncnc(C)c1-c1cc(NC(=O)c2ccccc2C#N)ccc1OCCN1CCC1` [Compound 324, N-(4-(2-(azetidin-1-yl)ethoxy)-3-(4,6-dimethylpyrimidin-5-yl)phenyl)-2-cyanobenzamide] was tested. Which Ki did it give?
A: 59700 nM

Q: For `Cc1ncnc(C)c1-c1cc(NC(=O)c2ccc(C#N)cc2)ccc1OCCN1CCC1` [Compound 326, N-(4-(2-(azetidin-1-yl)ethoxy)-3-(4,6-dimethylpyrimidin-5-yl)phenyl)-4-cyanobenzamide], which Ki is on record?
A: 13.7 nM

Q: `Cc1cnn(C)c1C(=O)Nc1ccc(OCCN2CCC2)c(-c2c(C)ncnc2C)c1` [Compound 327, N-(4-(2-(azetidin-1-yl)ethoxy)-3-(4,6-dimethylpyrimidin-5-yl)phenyl)-1,4-dimethyl-1H-pyrazole-5-carboxamide] was tested. Which Ki did it give?
A: 15.9 nM

Q: How did the Ki turn out when `Cc1ncnc(C)c1-c1cc(NC(=O)C2(CF)CC2)ccc1OCCN1CCC1` [Compound 328, N-(4-(2-(azetidin-1-yl)ethoxy)-3-(4,6-dimethylpyrimidin-5-yl)phenyl)-1-(fluoromethyl)cyclopropane-1-carboxamide] was run?
A: 13.6 nM

Q: `Cc1ncnc(C)c1-c1cc(NC(=O)Cc2nccs2)ccc1OCCN1CCC1` [Compound 329, N-(4-(2-(azetidin-1-yl)ethoxy)-3-(4,6-dimethylpyrimidin-5-yl)phenyl)-2-(thiazol-2-yl)acetamide] was tested. Which Ki did it give?
A: 11.5 nM

Q: For `Cc1ncnc(C)c1-c1cc(NC(=O)c2ncccc2F)ccc1OCCN1CCC1` [Compound 330, N-(4-(2-(azetidin-1-yl)ethoxy)-3-(4,6-dimethylpyrimidin-5-yl)phenyl)-3-fluoropicolinamide], which Ki is on record?
A: 334 nM

Q: Which Ki does the source give for `Cc1ncnc(C)c1-c1cc(NC(=O)c2cnccc2F)ccc1OCCN1CCC1` [Compound 331, N-(4-(2-(azetidin-1-yl)ethoxy)-3-(4,6-dimethylpyrimidin-5-yl)phenyl)-4-fluoronicotinamide] here?
A: 23.7 nM
